This is an account of results in ChEMBL document CHEMBL1201862, “PubChem BioAssay data set” (2004).

Assay [1] in a line: inhibitors of Bluetongue virus cytopathic effect, confirmation, arbovirus, BSR cells (AID 1250).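 Note: protection from viral cytopathic effect measured as cell viability by ATP luminescence.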 Type of assay: functional.
The nature of assay [2]: NIH-3T3 fibroblast cytotoxicity, dose response, cytotoxicity control, cell-based, fluorescence, Alamar Blue, secondary assay (AID 2327).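 Note: NIH-3T3 mouse fibroblasts cultured with fluconazole at 8 µg/mL.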 Type of assay: functional.
The nature of assay [3]: C. albicans growth with fluconazole, confirmation, fluorescence, retest (AID 2467). Type of assay: functional, cell-based.
In assay [4] the target is T1, Serine/threonine-protein phosphatase (Candida dubliniensis (strain CD36 / CBS 7987 / NCPF 3949 / NRRLY-17841) (Yeast), UniProt B9W6M3).
T1 sequence (B9W6M3 whole entry): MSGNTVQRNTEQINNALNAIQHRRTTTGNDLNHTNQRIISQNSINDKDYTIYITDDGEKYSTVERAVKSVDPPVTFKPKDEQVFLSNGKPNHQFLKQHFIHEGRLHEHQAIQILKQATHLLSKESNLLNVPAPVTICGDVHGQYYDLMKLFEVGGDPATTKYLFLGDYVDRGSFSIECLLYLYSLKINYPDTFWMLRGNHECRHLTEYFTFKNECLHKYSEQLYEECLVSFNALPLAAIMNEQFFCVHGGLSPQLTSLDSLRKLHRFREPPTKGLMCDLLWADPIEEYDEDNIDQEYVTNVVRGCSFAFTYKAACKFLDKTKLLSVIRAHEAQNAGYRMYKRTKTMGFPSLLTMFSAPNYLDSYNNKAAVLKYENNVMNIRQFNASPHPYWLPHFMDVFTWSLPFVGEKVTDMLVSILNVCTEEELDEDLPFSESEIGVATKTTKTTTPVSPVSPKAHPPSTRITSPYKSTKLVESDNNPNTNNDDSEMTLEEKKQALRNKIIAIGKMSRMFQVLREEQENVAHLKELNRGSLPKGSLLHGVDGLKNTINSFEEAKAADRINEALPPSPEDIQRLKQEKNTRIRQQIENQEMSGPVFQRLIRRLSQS
Briefly: calcineurin pathway inhibitors in yeast reporter, dose response, S. cerevisiae, CDRE-lacZ, luminescence, secondary (AID 2388).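 Note: yeast reporter cells carrying a calcineurin-responsive lacZ construct stimulated with calcium chloride; luminescent beta-galactosidase reporter signal in whole cells rather than isolated phosphatase activity; potency for inhibition where a drop in reporter signal means calcineurin blockade.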 Type of assay: functional, cell-based.

Assay [5] has as its target ATP-dependent molecular chaperone HSP82 (Candida albicans (strain WO-1) (Yeast), UniProt C4YTQ8). Briefly: loss of DOC-induced GRE-beta-galactosidase reporter signal, dose response, Hsp90 inhibitor project, S. cerevisiae, luminescence (AID 2400).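 Note: beta-galactosidase luminescence from glucocorticoid response element reporter as proxy for Hsp90 function; inhibitor potency where signal loss means Hsp90 inhibition.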 Type of assay: functional, cell-based.
For assay [6], the target named is Acyl-homoserine lactone acylase PvdQ (Pseudomonas aeruginosa (strain LESB58), UniProt Q9I194). Briefly: P. aeruginosa PvdQ acylase inhibitors, dose response, biochemical, fluorescence, plate reader and imaging, cherry-picks (AID 493231).
Chain of Acyl-homoserine lactone acylase PvdQ (Q9I194 24-193 limits assumed): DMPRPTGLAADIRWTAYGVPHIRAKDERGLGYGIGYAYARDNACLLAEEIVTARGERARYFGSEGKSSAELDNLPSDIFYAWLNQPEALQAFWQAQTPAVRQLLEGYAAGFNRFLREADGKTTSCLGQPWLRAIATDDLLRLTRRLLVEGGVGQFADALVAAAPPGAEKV
Chain of Acyl-homoserine lactone acylase PvdQ (Q9I194 217-762 limits assumed): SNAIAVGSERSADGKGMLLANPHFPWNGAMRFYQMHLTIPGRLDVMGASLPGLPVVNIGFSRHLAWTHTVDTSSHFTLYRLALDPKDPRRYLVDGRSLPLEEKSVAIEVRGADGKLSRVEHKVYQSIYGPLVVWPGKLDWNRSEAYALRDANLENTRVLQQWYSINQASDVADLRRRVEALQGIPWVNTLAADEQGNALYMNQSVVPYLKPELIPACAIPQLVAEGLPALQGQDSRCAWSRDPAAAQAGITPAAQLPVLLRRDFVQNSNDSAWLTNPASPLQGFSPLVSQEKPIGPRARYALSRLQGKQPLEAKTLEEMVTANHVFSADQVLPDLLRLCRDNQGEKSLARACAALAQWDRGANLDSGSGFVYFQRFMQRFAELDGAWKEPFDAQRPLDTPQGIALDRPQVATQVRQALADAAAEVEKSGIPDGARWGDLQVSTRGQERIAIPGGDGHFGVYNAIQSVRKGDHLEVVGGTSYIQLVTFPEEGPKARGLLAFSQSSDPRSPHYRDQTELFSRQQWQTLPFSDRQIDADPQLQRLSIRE
Assay [7] has as its target T2, Interleukin-8 (Homo sapiens, UniProt P10145).
T2 sequence (P10145 whole entry): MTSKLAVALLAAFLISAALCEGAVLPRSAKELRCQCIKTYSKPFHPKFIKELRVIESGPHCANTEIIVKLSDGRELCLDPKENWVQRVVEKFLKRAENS
Briefly: Dose Response confirmation of uHTS small molecule hits for cystic fibrosis induced NFkb Inhibitors in a TNFa-induced IL8 counterscreen. Type of assay: functional. Particulars: read-out: IC50_Mean.

The target in assay [8] is T2, Interleukin-8. The assay is described as follows: Dose Response confirmation of uHTS small molecule hits for cystic fibrosis induced NFkb Inhibitors in a PAF-induced IL8 counterscreen. Type of assay: functional. The settings on record: read-out: IC50_Mean.
The target of assay [9] is Melanin-concentrating hormone receptor 1 (Homo sapiens, UniProt Q99705). Briefly: Late-stage fluorescence-based counterscreen for antagonists of the G-protein coupled receptor 7 (GPR7): cell-based dose response assay to identify antagonists of the melanin-concentrating hormone receptor 1 (MCHR1). [Related pubchem assays (depositor defined):AID1861, AID1880, AID1952, AID2148, AID2251, AID2257, AID485339]. Type of assay: functional.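 Note: stimulated with 30 nM MCH peptide agonist.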
Chain of Melanin-concentrating hormone receptor 1 (Q99705 whole entry): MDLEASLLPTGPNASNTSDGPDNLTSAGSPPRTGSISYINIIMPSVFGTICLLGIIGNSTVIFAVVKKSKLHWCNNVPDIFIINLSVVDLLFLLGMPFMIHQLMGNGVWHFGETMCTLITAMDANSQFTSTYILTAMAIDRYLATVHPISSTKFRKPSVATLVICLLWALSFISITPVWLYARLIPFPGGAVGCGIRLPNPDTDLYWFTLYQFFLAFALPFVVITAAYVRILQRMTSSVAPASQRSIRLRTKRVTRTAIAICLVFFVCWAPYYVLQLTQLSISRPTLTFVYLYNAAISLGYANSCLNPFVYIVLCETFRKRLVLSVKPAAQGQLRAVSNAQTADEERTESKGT

The target of the next assay is Protein Rev (Human immunodeficiency virus type 1 group M subtype B (isolate HXB2)(HIV-1), UniProt P04618). Briefly: inhibitors of Rev binding to RRE RNA, dose response, biochemical, fluorescence polarization, HIV-1 (AID 434976). Details: species or system Human immunodeficiency virus 1.
Chain of Protein Rev (P04618 whole entry): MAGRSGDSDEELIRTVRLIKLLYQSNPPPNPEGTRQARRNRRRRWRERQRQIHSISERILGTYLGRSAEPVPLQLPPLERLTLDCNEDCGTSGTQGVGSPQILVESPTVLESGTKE
The target in assay [10] is Female germline-specific tumor suppressor gld-1 (Caenorhabditis elegans, UniProt Q17339). Briefly: inhibitors of GLD-1 binding to TGE RNA, dose response, biochemical, fluorescence polarization, C. elegans (AID 2802).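 Note: fluorescence polarization of labeled TGE RNA bound by purified gld-1 protein.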
Chain of Female germline-specific tumor suppressor gld-1 (Q17339 whole entry): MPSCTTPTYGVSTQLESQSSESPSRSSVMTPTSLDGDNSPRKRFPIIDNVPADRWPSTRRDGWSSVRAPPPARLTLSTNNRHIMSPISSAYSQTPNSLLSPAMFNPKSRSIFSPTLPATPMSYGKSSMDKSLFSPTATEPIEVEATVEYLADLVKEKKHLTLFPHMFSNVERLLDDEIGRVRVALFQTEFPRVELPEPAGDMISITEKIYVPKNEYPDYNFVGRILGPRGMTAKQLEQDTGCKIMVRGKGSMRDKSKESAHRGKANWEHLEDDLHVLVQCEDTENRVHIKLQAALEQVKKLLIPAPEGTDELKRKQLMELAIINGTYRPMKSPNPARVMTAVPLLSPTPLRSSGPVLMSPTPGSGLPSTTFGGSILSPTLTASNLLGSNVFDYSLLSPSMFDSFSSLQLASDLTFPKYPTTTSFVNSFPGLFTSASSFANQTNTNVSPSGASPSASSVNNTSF
For the next assay, the target named is Kallikrein-7 (Homo sapiens, UniProt P49862). Briefly: Fluorescence Intensity-based biochemical primary high throughput dose response assay to identify activators of kallikrein-7 (K7) zymogen.
Chain of Kallikrein-7 (P49862 whole entry): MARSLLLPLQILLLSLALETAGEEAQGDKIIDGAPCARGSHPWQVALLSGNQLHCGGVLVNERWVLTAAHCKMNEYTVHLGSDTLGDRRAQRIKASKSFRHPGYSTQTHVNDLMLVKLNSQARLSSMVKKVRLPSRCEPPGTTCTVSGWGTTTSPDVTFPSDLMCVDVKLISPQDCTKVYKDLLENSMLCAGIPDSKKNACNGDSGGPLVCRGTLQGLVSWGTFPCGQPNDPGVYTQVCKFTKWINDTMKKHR
Assay [11] deals with Cystic fibrosis transmembrane conductance regulator/Golgi-associated PDZ and coiled-coil motif-containing protein (Homo sapiens, UniProt P13569+Q9HD26). Briefly: CAL PDZ peptide-binding inhibitors, dose response, biochemical, fluorescence polarization, Cerulean-tagged CAL PDZ, cherry-picks (AID 504773).
Chain of Cystic fibrosis transmembrane conductance regulator/Golgi-associated PDZ and coiled-coil motif-containing protein (P13569 whole entry, other chains not shown): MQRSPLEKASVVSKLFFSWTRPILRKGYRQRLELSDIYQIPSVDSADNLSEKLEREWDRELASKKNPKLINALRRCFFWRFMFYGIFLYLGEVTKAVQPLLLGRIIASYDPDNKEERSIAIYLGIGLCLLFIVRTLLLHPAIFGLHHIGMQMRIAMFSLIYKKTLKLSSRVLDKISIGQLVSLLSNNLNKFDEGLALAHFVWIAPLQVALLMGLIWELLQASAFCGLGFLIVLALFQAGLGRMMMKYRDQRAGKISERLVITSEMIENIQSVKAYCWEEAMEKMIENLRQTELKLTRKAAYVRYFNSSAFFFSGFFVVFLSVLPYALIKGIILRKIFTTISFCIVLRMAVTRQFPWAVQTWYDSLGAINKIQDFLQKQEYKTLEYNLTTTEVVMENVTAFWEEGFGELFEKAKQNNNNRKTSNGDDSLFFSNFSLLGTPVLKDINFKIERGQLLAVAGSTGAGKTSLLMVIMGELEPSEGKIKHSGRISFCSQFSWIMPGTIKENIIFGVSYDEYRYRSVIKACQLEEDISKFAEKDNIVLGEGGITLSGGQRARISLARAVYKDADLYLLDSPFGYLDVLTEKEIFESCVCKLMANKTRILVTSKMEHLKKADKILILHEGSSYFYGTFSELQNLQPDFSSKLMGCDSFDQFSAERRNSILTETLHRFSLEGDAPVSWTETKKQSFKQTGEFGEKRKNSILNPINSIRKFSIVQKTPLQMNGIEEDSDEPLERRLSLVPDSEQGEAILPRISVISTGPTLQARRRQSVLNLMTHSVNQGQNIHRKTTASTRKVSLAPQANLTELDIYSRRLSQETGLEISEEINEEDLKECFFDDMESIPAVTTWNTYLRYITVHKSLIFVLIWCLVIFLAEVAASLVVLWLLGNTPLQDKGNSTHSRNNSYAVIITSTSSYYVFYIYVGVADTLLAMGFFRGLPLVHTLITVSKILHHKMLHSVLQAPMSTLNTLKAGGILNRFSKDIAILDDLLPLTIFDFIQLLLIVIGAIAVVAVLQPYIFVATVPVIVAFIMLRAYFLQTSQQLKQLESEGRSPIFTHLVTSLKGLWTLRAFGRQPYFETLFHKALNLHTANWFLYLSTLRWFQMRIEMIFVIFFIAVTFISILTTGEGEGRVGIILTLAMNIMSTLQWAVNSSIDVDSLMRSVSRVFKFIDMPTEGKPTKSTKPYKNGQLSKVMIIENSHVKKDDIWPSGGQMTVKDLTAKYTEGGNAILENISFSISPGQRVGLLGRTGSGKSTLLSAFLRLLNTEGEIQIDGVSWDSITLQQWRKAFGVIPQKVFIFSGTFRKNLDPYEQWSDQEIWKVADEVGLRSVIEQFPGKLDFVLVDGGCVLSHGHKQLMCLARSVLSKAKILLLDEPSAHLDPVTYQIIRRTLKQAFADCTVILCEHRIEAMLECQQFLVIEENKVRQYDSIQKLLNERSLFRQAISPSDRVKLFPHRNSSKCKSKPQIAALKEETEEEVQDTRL
For another assay, the target named is Nonstructural protein 1 (Influenza A virus, UniProt Q194T2). Type of assay: functional, Influenza A virus (A/California/07/2009(H1N1)).
Chain of Nonstructural protein 1 (Q194T2 whole entry): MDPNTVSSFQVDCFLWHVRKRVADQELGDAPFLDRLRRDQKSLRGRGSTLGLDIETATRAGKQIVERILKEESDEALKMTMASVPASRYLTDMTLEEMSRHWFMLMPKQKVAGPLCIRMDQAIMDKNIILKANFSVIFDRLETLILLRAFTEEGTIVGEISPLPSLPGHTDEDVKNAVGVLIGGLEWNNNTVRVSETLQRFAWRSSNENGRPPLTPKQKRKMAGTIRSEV
Assay [12] concerns the target Heat shock protein HSP 90-alpha (Homo sapiens, UniProt P07900). Type of assay: functional, organism-based.
A short description of assay [13]: human group III sPLA2 inhibitors, dose response, biochemical, QFRET, IC50 (AID 743457).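 Note: green fluorescence rise as the enzyme cleaves BODIPY PC-A2 in liposomes; potency for inhibition of the enzyme.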
For another assay, the target named is T3, Leucine aminopeptidase (Plasmodium falciparum 3D7, UniProt Q8IL11).
T3 sequence (Q8IL11 whole entry): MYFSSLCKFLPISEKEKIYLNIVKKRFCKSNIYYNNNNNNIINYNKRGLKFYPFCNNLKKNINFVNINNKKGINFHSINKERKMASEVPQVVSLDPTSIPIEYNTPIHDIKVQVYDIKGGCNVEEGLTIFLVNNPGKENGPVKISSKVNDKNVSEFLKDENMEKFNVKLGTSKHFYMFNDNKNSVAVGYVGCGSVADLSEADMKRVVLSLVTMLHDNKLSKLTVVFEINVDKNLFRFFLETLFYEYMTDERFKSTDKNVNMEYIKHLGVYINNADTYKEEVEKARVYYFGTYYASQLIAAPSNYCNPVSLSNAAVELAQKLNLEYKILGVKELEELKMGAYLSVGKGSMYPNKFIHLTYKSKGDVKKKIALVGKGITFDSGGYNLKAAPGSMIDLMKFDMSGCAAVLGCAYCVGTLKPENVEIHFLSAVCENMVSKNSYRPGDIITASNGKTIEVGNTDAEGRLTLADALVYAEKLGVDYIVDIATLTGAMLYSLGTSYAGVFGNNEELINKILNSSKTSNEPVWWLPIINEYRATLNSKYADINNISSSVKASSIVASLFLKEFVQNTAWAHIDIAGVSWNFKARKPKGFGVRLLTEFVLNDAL
The assay is described as follows: P. falciparum M17LAP inhibitors, primary screen, biochemical, fluorogenic H-Leu-NHMec substrate, 1536-well (AID 1619). Type of assay: functional.

For a further assay, the target named is T4, Estrogen receptor (Homo sapiens, UniProt P03372).
T4 sequence (P03372 whole entry): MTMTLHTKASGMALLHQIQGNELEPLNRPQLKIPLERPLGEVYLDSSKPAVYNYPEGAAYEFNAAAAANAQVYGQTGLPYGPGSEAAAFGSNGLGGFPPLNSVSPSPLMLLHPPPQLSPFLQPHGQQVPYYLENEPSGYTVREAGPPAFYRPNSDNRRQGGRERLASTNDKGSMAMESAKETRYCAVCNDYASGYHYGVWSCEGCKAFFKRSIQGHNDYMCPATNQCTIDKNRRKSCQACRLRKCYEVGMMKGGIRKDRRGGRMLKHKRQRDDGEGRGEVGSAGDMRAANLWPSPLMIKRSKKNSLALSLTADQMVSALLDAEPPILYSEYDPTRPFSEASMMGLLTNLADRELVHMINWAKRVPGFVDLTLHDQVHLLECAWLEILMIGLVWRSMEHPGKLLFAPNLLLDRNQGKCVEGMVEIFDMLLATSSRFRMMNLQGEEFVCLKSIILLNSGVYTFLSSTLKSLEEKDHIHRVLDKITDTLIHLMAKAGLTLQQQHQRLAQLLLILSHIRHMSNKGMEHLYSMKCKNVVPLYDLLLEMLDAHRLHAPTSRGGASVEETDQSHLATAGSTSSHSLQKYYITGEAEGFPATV
Briefly: potentiators of ERα–SRC-1 coactivator binding, dose response, biochemical, TR-FRET, ERα LBD (AID 737).

For assay [14], the target named is T5, Replicative DNA helicase DnaB (Mycobacterium tuberculosis, UniProt P9WMR3).
T5 sequence (P9WMR3 whole entry): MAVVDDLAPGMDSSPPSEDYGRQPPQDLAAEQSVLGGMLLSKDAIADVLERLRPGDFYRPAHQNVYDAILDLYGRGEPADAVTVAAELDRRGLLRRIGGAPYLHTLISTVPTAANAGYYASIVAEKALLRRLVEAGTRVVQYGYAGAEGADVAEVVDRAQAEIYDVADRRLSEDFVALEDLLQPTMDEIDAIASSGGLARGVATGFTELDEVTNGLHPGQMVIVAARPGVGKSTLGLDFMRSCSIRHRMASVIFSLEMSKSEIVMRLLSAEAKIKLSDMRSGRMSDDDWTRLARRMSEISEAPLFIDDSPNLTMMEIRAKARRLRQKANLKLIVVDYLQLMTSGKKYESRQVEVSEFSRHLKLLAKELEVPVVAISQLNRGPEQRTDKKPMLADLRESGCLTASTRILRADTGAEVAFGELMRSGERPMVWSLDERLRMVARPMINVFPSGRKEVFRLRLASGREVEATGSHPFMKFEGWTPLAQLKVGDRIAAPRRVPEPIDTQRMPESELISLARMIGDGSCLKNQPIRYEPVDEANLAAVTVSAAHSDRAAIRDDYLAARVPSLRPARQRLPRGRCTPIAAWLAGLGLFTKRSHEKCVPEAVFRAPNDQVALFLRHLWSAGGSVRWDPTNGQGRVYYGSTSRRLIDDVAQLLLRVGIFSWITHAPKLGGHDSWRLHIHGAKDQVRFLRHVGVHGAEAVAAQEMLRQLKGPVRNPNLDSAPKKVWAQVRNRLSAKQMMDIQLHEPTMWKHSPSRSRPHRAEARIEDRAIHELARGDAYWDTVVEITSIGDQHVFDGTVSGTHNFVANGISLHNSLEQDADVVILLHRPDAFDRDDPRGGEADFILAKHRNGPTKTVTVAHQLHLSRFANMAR
The assay is described as follows: DnaB intein splicing inhibitors, dose response, biochemical, cell-free fluorescence (AID 449749). Type of assay: functional.

The target in a further assay is T6, Protein RecA (Mycobacterium tuberculosis, UniProt P9WHJ3).
T6 sequence (P9WHJ3 whole entry): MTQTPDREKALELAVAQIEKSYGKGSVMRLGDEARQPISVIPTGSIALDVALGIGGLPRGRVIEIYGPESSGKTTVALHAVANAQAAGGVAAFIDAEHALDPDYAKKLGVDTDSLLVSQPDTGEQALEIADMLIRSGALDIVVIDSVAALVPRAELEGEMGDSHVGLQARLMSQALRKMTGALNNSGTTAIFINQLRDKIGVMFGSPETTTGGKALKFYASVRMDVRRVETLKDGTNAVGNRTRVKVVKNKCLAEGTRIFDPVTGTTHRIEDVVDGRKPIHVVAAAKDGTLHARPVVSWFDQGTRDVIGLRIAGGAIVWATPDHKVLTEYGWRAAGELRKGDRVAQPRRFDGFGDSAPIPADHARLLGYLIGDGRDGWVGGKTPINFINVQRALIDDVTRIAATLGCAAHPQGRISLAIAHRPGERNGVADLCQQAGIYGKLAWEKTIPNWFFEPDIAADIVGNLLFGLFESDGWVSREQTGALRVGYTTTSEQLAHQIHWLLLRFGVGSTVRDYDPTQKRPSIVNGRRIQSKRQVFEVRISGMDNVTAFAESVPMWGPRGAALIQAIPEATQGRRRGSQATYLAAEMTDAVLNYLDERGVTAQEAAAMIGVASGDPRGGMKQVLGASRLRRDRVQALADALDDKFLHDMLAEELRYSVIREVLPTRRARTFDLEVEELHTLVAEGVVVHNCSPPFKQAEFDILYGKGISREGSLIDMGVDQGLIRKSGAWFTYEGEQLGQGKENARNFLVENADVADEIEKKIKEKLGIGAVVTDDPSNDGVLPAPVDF
The assay is described as follows: Fluorescence Cell-Free Homogeneous Dose Retest to Identify Inhibitors of RecA-Intein Splicing Activity. [Related pubchem assays (depositor defined):AID2097, AID2223, AID489010, AID492950]. Type of assay: functional.

The structures appear in SMILES notation. Activity calls are given as the source filed them.

Chain of ATP-dependent molecular chaperone HSP82 (C4YTQ8 whole entry): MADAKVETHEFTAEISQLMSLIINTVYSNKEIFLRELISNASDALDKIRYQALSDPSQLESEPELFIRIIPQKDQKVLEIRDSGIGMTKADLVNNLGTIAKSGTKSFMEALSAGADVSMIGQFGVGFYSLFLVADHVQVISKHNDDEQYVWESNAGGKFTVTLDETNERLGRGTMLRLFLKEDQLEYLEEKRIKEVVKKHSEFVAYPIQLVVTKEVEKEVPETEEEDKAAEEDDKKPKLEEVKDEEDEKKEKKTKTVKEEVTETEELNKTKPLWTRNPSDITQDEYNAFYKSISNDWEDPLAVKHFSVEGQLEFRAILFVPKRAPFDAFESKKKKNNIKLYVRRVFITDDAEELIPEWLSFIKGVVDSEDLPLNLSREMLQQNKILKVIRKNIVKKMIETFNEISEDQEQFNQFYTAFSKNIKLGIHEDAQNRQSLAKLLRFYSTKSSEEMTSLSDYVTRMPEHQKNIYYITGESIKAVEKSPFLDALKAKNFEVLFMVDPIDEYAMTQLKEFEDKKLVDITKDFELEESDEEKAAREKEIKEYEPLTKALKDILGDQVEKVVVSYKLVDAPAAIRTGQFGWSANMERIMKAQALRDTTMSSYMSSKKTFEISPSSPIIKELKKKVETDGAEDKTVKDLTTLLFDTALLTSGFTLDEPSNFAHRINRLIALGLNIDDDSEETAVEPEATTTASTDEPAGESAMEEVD

In the case of `O=C(Nc1sc2c(c1C(=O)O)CCCCC2)c1cccs1`, the IC50 in [1] was 27.6 µM (active).
For `Cc1oc2ccc(OC(=O)N(C)C)cc2c1C(=O)OC(C)C`, the EC50 was 137 µM (inconclusive) in [2], 1.34 µM (active) in [3], > 180 µM (inactive) in [4] and > 160 µM (inactive) in assay [5]. Also, in assay [1], the IC50 was 35.1 µM (active).
Regarding `CN(c1ncnc(N)c1[N+](=O)[O-])C1CCCCC1`, the AC50 in [6] was 15.3 µM (active). For the same compound, the IC50 is 46.8 µM (inactive) at Interleukin-8 [7] and 16.9 µM (inactive) on Interleukin-8 [8].
Consider `CC(C)c1ccc(-n2ncc(Cl)c(Oc3ccc(CO)cc3)c2=O)cc1`, for which, in assay [9], the IC50 was 3.7 µM (active).
As for `CC(=O)N1CCN(C2=Nc3cccc4cccc2c34)CC1`, the IC50 on Protein Rev was 15.8 µM (not active); in assay [10] it was 7.57 µM (active). The EC50 at Kallikrein-7 was 36.7 µM (inactive).
Consider `CN(C)c1ccc(/C=c2\c3ccccc3n3c2cc(-c2ccccc2)[n+]3C)cc1`, for which the AC50 is 94 µM (active) in assay [11] and 4.19 µM (active) in assay [12]. Further, the figures for the IC50 (at Nonstructural protein 1; in [13]) were 6.8 µM (active) and 66.8 µM (inactive), respectively.
Consider `C=Cc1cnn(-c2ccc(C(C)C)cc2)c(=O)c1Oc1ccc(OC)cc1`, for which the IC50 in assay [9] is 3.9 µM (active).
In the case of `CCOC(=O)c1cc2c(ccn2C)n1CC(=O)N1CCN(c2cccc(C(F)(F)F)c2)CC1`, the IC50 on Protein Rev is > 75.4 µM (not active); in assay [10], > 6.63 µM (active).
Turning to `Cc1cc(NC(=O)c2c(F)c(F)c(F)c(F)c2F)no1`, in assay [6], the AC50 was 1.24 µM (active).
On to `CCOc1ccccc1C1C(C#N)=C(N)Nc2onc(-c3ccccc3)c21` (stereo not given), for which the IC50 at Leucine aminopeptidase was 52.7 µM (active). In addition, the EC50 on Estrogen receptor is 17.5 µM (active); on Protein RecA, 1.39 µM (active). In addition, the AC50 in assay [14] is 2.47 µM (active).
